Measured values taken from patent publication US10051857B2, “Formulation component” (SYNGENTA LIMITED, priority 2011, dated 2018).

Legend:
Assay type in all cases: in vivo
Setaria viridis (SETVI) = test: Glasshouse adjuvant test with fomesafen (Example 5); conditions: fomesafen 60 or 120 g/ha, adjuvant 0.2% v/v or none, 200 l/ha; growth stage 13; mean over two rates, three replicates, 7, 14 and 21 days
Method: (§1) Compound 1 (N, N-diethyl-3-methylbenzamide) was tested in a glasshouse against four weed species using the herbicide fomesafen. An agrochemical composition was prepared containing 0.2% v/v of the adjuvant in a track sprayer and was applied at a volume of 200 liters per hectare. Fomesafen was applied at either 60 or 120 grams of pesticide per hectare on each of the weed species. The weed species and their growth stage at spraying were Chenopodium album (CHEAL; growth stage 13/14), Abutilon theophrasti (ABUTH; growth stage 12), Setaria viridis (SETVI; growth stage 13), and Xanthium strumarium (XANST; growth stage 12).
(§2) Each spray test was replicated three times. The efficacy of the herbicide was assessed visually and expressed as a percentage of the leaf area killed. Samples were assessed at time periods of 7, 14 and 21 days following application. The results shown in Table 5 below are mean averages over the two rates of fomesafen, three replicates and the three assessment timings, and are compared to the efficacy of fomesafen in the absence of adjuvant.

[1] = tested on: Chenopodium album (CHEAL); test: as above; conditions: fomesafen 60 or 120 g/ha, adjuvant 0.2% v/v or none, 200 l/ha; growth stage 13/14; mean over two rates, three replicates, 7, 14 and 21 days
Method: as §1, §2

[2] = tested on: Xanthium strumarium (XANST); test: as above; conditions: fomesafen 60 or 120 g/ha, adjuvant 0.2% v/v or none, 200 l/ha; growth stage 12; mean over two rates, three replicates, 7, 14 and 21 days
Method: as §1, §2

[3] = tested on: Abutilon theophrasti (ABUTH); test: as above; conditions: fomesafen 60 or 120 g/ha, adjuvant 0.2% v/v or none, 200 l/ha; growth stage 12; mean over two rates, three replicates, 7, 14 and 21 days
Method: as §1, §2

[4] = tested on: four weed species (CHEAL, ABUTH, SETVI, XANST); test: Glasshouse adjuvant test with fomesafen (Example 5), mean across species; conditions: fomesafen 60 or 120 g/ha, adjuvant 0.2% v/v or none
Method: as §1, §2

[5] = tested on: four weed species (AMATE, BRADE, DIGSA, POLCO); test: Glasshouse adjuvant test with mesotrione (Example 6), mean across species; conditions: mesotrione 45 or 90 g/ha, adjuvant 0.2% v/v or none

Which “Mean percentage kill SETVI” value (Setaria viridis (SETVI)) does the source give for `CCN(CC)C(=O)c1cccc(C)c1` [Compound 1, N, N-diethyl-3-methylbenzamide] here?
Its value is 15.8%.

What about the “Mean percentage kill CHEAL” value [1] of the same compound?
The value was 80.3%.

And the “Mean percentage kill XANST” value [2]?
Its value is 35.6%.

What about the “Mean percentage kill ABUTH” value [3] of the same compound?
The value was 38.9%.

What about the “Mean percentage kill, Mean across species” value [4] of the same compound?
The value was 42.6%.

And the “Mean percentage kill, Mean across species” value [5]?
The value was 54.1%.
